The values that follow come from patent US11160788B2, “Caspase-1 inhibition and uses thereof for prevention and treatment of neurological conditions” (priority 2016, dated 2021).

Assay [1] has as its system J20 mice. As to the kind of experiment: Barnes maze, preventive treatment of pre-symptomatic J20 mice. It counts as in vivo, mouse. The source says: FIG. 23: Barnes maze to assess spatial memory in J20 mice. Barnes maze tested at washout at (a-c) 12 week (6 months of age) and (d-f) 20 week (8 months of age). (a,d) Learning to find the escape hatch over 4 days in seconds. (b,e) Primary latency to reach the escape hatch and primary errors to find the hatch. In (b) One-way ANOVA (F(2,29)=5.948, p=0.0068), in (e) One-way ANOVA (F(2,22)=7.2545, p=0.0038) followed by Dunnett's pot-hoc *p<0.05, ** p<0.01. (c,f) Probe test: number of pokes for each of the 20 holes of the Barnes maze when hatch hole is blocked. T indicates target hole where hatch was accessible during training.
(§1) We directly tested whether pre-symptomatic inhibition of inflammation in a mouse genetic model of Alzheimer disease can stem the progression of memory and behavioral deficits, and Alzheimer disease-like pathology. The J20 amyloid precursor protein Swedish/Indiana mutant mouse was treated at 2 months of age for a one month period with 50 mg/Kg Caspase-1 inhibitor VX-765 (FIG. 22a).

Assay [2] concerns J20 mice. As to the kind of experiment: Novel object recognition (NOR), treatment of symptomatic J20 mice. The class given is in vivo, mouse. To be noted: for NOR behavior: 10 mg/kg; for NOR discrimination index: 25 mg/kg; for NOR deficit: 50 mg/kg IP. The source says:
FIG. 8: VX-765 treatment restores cognitive function in J20 mice. (a) Experimental paradigm. Intraperitoneal vehicle-injected wild type (WT+Vehicle; n=13) and J20 mice (J20+Vehicle: n=9), and VX-765-injected J20 mice (J20+VX-765: n=9) mice were behaviourally assessed at 5 different time-points: baseline before treatment (baseline untreated J20 were grouped together; n=18), after 3 IP injections/wk of VX-765 or vehicle (Treatment 1), after 6 additional injections over 2 weeks (Treatment 2), after 4-week Washout period, and after an additional 3 injections in one week (Treatment 3). Mice were sacrificed at 8 months of age after Treatment 3 (b) NOR Discrimination index (Treatment main effect, F(2,20)=85.8, p<0.0001; Time main effect, F(4,80)=4.188, p=0.0039; Treatment×Time interaction, F(8,80)=[…], two-way repeated-measures ANOVA, Dunnett's post-hoc compared to J20+Vehicle). (c) Distance traveled during Open Field task. Data analyzed by repeated measures two-way ANOVA (Treatment main effect, F(2,19)=11.47, p=0.0005; Treatment×Time interaction, F(8,76)=5.69, p<0.0001, two-way repeated-measures ANOVA, Dunnett's post-hoc compared to J20+Vehicle). (d-i) Barnes maze analysis. Learning acquisition (d,g), probe test primary latency and errors (e,h), and target hole preference (f,i); # of pokes of each hole labelled +1 to +9 to the right or −1 to −9 to the left of the target hole during the probe) after Treatment 2 (d-f) and Washout (g-i). Probe tests were analyzed (Treatment 2 primary latency, F(2,52)=5.879, p=0.0050; Treatment 2 primary errors, F(2,52)=9.998, p=0.0002; Washout primary latency, F(2,22)=4.076, p=0.0312; Washout primary errors, F(2,22)=10.84, p=0.0005, ANOVA, Tukey's post-hoc). * p<0.05, ***p<0.001, ****p<0.0001.
[…] The 20-week-old mice were treated per the paradigm in section. VX-765 reverses episodic memory deficits in the J20 mouse.
Anxiety and hyperactivity are monitored in an open-field paradigm, episodic memory with the NOR, spatial memory with the Barnes maze, and short or long term working memory with the Y maze before and after treatments. Repeated measures are acceptable for the NOR, Barnes and Y maze^2-4.
J20 and littermate WT mice (20 wks) were first tested for episodic memory deficits with Novel Object Recognition (NOR) and anxiety and hyperactivity in an open-field paradigm. […] The injections were continued for 2 weeks at 3 injections/week (48 hr intervals between injections and 3 day interval between weeks) and mice retested. […]

Assay [3] has as its system J20 mice. Kind of assay: Amyloid immunostaining and ELISA, preventive treatment of J20 mice. The class given is in vivo, mouse.
Text: FIG. 24: Immunostaining of mice brains at 8 months of age (20 week washout) with anti-amyloid beta peptide 1-40 antiserum (a). […] (b) Quantitation of the immunopositive density of amyloid staining at 4, 8, 12, 16, and 20 weeks washout of VX-765 when mice are 4, 5, 6, 7, and 8 months respectively. (c) ELISA analyses of RIPA-soluble and formic-acid soluble hippocampal and cortical tissue protein extracts.
as §1
(An ELISA detects its analyte on a solid surface through an enzyme-linked reagent.)

The target of assay [4] is T1, recombinant human Casp1 (Homo sapiens, UniProt P29466).
T1 sequence (P29466 120-297 limits assumed): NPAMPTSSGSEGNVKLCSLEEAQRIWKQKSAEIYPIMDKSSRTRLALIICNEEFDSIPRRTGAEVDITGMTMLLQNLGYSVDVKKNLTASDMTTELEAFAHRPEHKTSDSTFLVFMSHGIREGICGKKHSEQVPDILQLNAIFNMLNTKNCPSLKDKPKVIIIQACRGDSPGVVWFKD
T1 sequence (P29466 317-404 limits assumed): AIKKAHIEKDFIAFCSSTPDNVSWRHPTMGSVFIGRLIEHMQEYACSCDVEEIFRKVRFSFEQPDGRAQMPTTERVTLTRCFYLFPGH
As to the kind of experiment: Caspase inhibition IC50, recombinant human Casp1. To be noted: read-out: IC50 against human Casp1. It counts as biochemical. As for the experimental part:
FIG. 14: Selectivity and blood brain permeability of VX-765 and VRT-043198. (a-b) IC50 of VX-765 (a) and VRT-043198 (b) against human Casp1-10. (c-d) IC50 of VX-765 (c) and VRT-043198 (d) against mouse Casp1 and Casp11. (e) Blood brain barrier permeability and presence of VX-765 and VRT-043198 in 3 wild type and 4 J20 mice brain cortex and hippocampus and in plasma. Ratios of brain levels to plasma levels are calculated.

“Also recorded” adds a separate entry of the source.

Usually IC50 stands for the midpoint of a concentration-inhibition curve. Regarding `CCO[C@@H]1OC(=O)C[C@@H]1NC(=O)[C@@H]1CCCN1C(=O)[C@@H](NC(=O)c1ccc(N)c(Cl)c1)C(C)(C)C` [VX-765, (S)-1-((S)-2-{[1-(4-amino-3-chloro-phenyl)-methanoyl]-amino}-3,3-dimethyl-butanoyl)-pyrrolidine-2-carboxylic acid ((2R,3S)-2-ethoxy-5-oxo-tetrahydro-furan-3-yl)-amide], the “Barnes maze ability to distinguish the target area” value in assay [1] (12-week washout) is recorded as “better ability to distinguish the target area”. In addition, in assay [1] (12-week washout), the “Barnes maze primary errors” value is reported as “corrected this deficit”. Moreover, the “Barnes maze primary latency” value in assay [1] (12-week washout (6 months of age)) was “tended towards a better performance”. Further, the “Barnes maze identifying the target area in probe test” value in assay [1] (20-week washout) was “performed better than the Vehicle-treated J20 mice”. Further, the “Barnes maze learning phase” value in assay [1] (20-week washout) is listed as “performed normally in the learning phase”. Besides, in assay [1] (20-week washout), the “Barnes maze primary latency and primary errors” value is listed as “did not reach statistical significance”. The NOR behavior result in assay [2] (Treatment 1 and 2) is recorded as “normalized NOR behavior only after T2”; in assay [2] (Treatment 3), “reappeared after T3”; in assay [2] (washout), “washed out”. The NOR discrimination index result is on record as “normalized” in assay [2] (Treatment 1), “normalized” in assay [2] (Treatment 2), “returned to normal at T3” in assay [2] (Treatment 3) and “deficits reappeared after WO” in assay [2] (washout). For the same molecule, the NOR deficit result in assay [2] (after 3 injections (Treatment 1)) is “reverted to normal; also recorded: reversed and reached near-normal levels”; in assay [2] (after 3 more injections (Treatment 3)) it was “attenuated NOR deficits; also recorded: disappeared again after T3”; in assay [2] (after 4-week washout) it was “NOR deficits reappeared; also recorded: reappeared after the WO period”; in assay [2] (after additional 2 weeks of injections (Treatment 2)), “continued to perform normally; also recorded: reversed and reached near-normal levels”. In addition, the “RIPA-soluble Aβ38, Aβ40, Aβ42, total Aβ, Aβ42/total Aβ” value in assay [3] (ELISA, hippocampal tissue) was “do not detect major differences”. Also, in assay [3] (cortical), the “formic acid soluble Aβ measures” value is on record as “not reduced”. In addition, the “amyloid levels in RIPA-soluble protein extracts” value in assay [3] (cortical tissue) is on record as “no effect”. For the same molecule, the “immunopositive density of amyloid staining” value in assay [3] (hippocampi and cortex, 16 and 20 week washout) is “slightly less amyloid”. In addition, the “formic acid soluble Aβ42/total Aβ” value in assay [3] (hippocampi, 20 week washout) is reported as “lower”. The “RIPA-soluble Aβ42/total Aβ” value in assay [3] (hippocampus, 20 week washout) is “slightly decreased”. Further, the IC50 in assay [4] is 3.68 nM.
